Columns and labels:
[1] = system: guinea pig gall bladder contracted with CCK-8; assay: Anti-CCK activity on guinea pig gall bladders in vitro; format: biochemical; conditions: CCK-8 10 ng/ml, concentration antagonising 50% of contracting effect
In short: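 Longitudinal gall bladder strips in Krebs at 32° C, gassed with O2/CO2 95:5, were contracted with CCK-8 at 10 ng/ml and contractions recorded isometrically via force transducer. ED50 in mcg/ml is the compound concentration antagonising 50% of CCK contraction, derived by regression over at least three experiments.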

[2] = system: analgesic activity of morphine; assay: Tail Flick Test: increase in the analgesic effect of morphine; format: in vivo, rats; conditions: for percentage variation in the latency of the pain sensation, 10' / percentage variation in the latency of the pain sensation, 20' / percentage variation in the latency of the pain sensation, 30' / percentage variation in the latency of the pain sensation, 45' / percentage variation in the latency of the pain sensation, 60' / percentage variation in the latency of the pain sensation, 90' / M(10'-90') average percentage variation: compound 10 mg/kg i.p. + morphine 2 mg/kg (row Morphine: alone); for percentage variation in the latency of the pain sensation, 10' / percentage variation in the latency of the pain sensation, 20' / percentage variation in the latency of the pain sensation, 30' / percentage variation in the latency of the pain sensation, 45' / percentage variation in the latency of the pain sensation, 60' / percentage variation in the latency of the pain sensation, 90': ± S.E.; for M(10'-90') average percentage variation: mean 10'-90'; for Potency ratio relative to morphine alone: rat, in vivo
In short: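 Male non-fasted rats, 150-200 g; heat source (75 °C) on tail, latency to tail movement timed, 8 s cut-off. Measured before and 10, 20, 30, 45, 60, 90 min after analgesic dosing; percentage variation per animal, averaged over groups of five.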

[3] = system: colon of rabbits stimulated with CCK-8; assay: Antispastic activity in the colon of rabbits stimulated with CCK-8; format: in vivo, rabbit; design: Antispastic activity, experiment 1 / Antispastic activity, experiment 2 / Antispastic activity, experiment 3: unit not given here; conditions: CCK 100 ng/kg; for ED50: Oryctolagus cuniculus, iv, three experiments
Method: The abdomen of an anaesthetised rabbit is cut open to expose the transverse colon. A balloon full of water is inserted at the point established and connected to a pressure transducer by means of a polyethylene cannula filled with H2 O.
The optimum sensitivity in relation to the physiological contractions is fixed and the products are administered through the femoral veins. Contractions are induced by the administration of 100 ng/kg of CCK.

| SMILES | Anti CCK-8 activity, ED50 [1] [µg/mL] | percentage variation in the latency of the pain sensation, 10' [2] [%] | percentage variation in the latency of the pain sensation, 20' [2] [%] | percentage variation in the latency of the pain sensation, 30' [2] [%] | percentage variation in the latency of the pain sensation, 45' [2] [%] | percentage variation in the latency of the pain sensation, 60' [2] [%] | percentage variation in the latency of the pain sensation, 90' [2] [%] | M(10'-90') average percentage variation [2] [%] | Potency ratio relative to morphine alone [2] | Antispastic activity, experiment 1 ([3]; 1 mg/kg iv) | Antispastic activity, experiment 2 ([3]; 1 mg/kg iv) | Antispastic activity, experiment 3 ([3]; 1 mg/kg iv) | Antispastic activity, experiment 1 ([3]; 3 mg/kg iv) | Antispastic activity, experiment 2 ([3]; 3 mg/kg iv) | Antispastic activity, experiment 3 ([3]; 3 mg/kg iv) | Antispastic activity, experiment 1 ([3]; 10 mg/kg iv) | Antispastic activity, experiment 2 ([3]; 10 mg/kg iv) | Antispastic activity, experiment 3 ([3]; 10 mg/kg iv) | ED50 [3] [mg/kg] | Antispastic activity, experiment 3 ([3]; 0.3 mg/kg iv) |
| --- | --- | --- | --- | --- | --- | --- | --- | --- | --- | --- | --- | --- | --- | --- | --- | --- | --- | --- | --- | --- |
| O=C(N[C@@H](Cc1c[nH]c2ccccc12)C(=O)O)OCc1ccc(Cl)cc1 [Compound 2] | 13.5 | 50.0 ± 14.9 | 25.0 ± 26.0 | 75.6 ± 17.6 | 23.7 ± 19.6 | 41.0 ± 20.3 | 43.6 ± 16.4 | 44.6 | 1.50 | -10.9 | -16.8 | -38.8 | -31.4 | -56.6 | -41.5 | -85.9 | -74.4 | -90.2 | 4.67 |  |
| CC(C)c1ccc(C(=O)N[C@@H](Cc2c[nH]c3ccccc23)C(=O)O)cc1 [Compound 20] | 17.9 | 20.0 ± 12.8 | 33.1 ± 22.0 | 37.6 ± 18.9 | 37.5 ± 18.8 | 54.4 ± 19.3 | 33.2 ± 18.1 | 36.0 | 1.21 | -30.8 | -44.2 | -34.7 | -36.0 | -60.3 | -59.0 | -82.5 | -100.0 |  | 3.41 | -12.8 |
